From paper PMC12155096 (International Journal of Molecular Sciences, 2025)
Where a name gives a salt, the structure may show the parent alone. Read-outs that look alike come from different tables or passages of the source.

Tests used:
[1] = molecular target: Photinus pyralis (firefly) luciferase (Photinus pyralis, UniProt P08659); experiment: biochemical; assay type: biochemical
human CYP1A2 = molecular target: T1, human CYP1A2 (Homo sapiens, UniProt P05177); experiment: biochemical
T1 sequence (P05177 1-516): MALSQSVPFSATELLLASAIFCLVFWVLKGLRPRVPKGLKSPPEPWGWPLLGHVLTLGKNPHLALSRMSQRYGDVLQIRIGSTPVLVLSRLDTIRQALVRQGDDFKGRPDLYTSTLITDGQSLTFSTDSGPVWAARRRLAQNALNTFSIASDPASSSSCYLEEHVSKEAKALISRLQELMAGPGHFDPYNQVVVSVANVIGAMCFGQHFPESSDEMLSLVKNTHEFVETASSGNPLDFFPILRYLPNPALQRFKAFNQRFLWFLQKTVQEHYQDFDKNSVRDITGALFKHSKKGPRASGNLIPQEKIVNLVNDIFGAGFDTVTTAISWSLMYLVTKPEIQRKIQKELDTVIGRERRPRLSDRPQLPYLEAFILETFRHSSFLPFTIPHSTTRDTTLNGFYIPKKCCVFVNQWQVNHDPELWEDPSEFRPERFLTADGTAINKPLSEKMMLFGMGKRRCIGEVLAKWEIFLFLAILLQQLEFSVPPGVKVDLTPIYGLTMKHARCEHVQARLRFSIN

human CYP2D6 = human CYP2D6 (Homo sapiens, UniProt P10635)
human CYP2C19 [2] = molecular target: T2, human CYP2C19 (Homo sapiens, UniProt P33261)
human CYP2C9 = human CYP2C9 (Homo sapiens, UniProt P11712); experiment: biochemical
CYP3A4 = CYP3A4 (Homo sapiens, UniProt P08684)
human CYP2C19 [3] = molecular target: T2, human CYP2C19; experiment: biochemical
[4] = CYP1A2 AC50 (half-maximal activity concentration)
[5] = CYP2C9 AC50 (half-maximal activity concentration)

T2 sequence (P33261 whole entry): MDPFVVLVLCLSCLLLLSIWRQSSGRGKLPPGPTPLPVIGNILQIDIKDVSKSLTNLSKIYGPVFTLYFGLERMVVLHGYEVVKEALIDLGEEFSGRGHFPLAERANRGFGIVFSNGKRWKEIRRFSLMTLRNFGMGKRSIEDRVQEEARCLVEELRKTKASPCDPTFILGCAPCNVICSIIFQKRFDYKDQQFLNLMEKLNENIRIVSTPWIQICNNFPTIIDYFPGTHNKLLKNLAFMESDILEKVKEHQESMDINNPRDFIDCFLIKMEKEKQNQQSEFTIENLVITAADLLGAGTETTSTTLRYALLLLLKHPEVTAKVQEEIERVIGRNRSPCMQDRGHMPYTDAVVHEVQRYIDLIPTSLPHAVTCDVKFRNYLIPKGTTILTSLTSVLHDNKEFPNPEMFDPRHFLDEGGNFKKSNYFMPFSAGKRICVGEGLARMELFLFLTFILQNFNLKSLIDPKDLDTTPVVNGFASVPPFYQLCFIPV
Chain of Photinus pyralis (firefly) luciferase (P08659 whole entry): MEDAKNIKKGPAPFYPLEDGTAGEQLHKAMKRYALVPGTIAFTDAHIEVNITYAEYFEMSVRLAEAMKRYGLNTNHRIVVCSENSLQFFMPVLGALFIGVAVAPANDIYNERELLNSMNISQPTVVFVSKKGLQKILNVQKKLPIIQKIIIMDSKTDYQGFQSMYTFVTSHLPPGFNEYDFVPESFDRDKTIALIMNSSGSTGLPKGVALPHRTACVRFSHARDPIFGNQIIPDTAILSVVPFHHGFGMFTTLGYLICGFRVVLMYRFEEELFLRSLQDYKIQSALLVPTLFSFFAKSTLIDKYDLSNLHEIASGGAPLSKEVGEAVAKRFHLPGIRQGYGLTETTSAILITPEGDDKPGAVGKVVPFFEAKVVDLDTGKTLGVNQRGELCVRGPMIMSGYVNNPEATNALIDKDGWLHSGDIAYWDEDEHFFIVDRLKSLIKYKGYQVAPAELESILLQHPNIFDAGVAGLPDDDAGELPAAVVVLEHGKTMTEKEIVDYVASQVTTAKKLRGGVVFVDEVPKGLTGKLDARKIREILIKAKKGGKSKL
Chain of CYP3A4 (P08684 whole entry): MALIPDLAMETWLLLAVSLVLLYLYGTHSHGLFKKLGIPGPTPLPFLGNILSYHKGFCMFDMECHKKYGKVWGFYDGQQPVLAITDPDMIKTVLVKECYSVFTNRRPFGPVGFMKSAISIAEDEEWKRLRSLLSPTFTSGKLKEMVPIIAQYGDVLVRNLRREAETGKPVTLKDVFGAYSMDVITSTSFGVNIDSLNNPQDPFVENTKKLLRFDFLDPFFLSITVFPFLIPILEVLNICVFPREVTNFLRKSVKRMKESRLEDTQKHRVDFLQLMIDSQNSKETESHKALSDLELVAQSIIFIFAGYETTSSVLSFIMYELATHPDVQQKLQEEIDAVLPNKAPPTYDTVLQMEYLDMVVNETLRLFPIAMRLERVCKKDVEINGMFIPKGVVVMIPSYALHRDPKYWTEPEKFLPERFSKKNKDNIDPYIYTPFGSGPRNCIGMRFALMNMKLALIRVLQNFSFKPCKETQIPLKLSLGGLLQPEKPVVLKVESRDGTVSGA
Chain of human CYP2D6 (P10635 whole entry): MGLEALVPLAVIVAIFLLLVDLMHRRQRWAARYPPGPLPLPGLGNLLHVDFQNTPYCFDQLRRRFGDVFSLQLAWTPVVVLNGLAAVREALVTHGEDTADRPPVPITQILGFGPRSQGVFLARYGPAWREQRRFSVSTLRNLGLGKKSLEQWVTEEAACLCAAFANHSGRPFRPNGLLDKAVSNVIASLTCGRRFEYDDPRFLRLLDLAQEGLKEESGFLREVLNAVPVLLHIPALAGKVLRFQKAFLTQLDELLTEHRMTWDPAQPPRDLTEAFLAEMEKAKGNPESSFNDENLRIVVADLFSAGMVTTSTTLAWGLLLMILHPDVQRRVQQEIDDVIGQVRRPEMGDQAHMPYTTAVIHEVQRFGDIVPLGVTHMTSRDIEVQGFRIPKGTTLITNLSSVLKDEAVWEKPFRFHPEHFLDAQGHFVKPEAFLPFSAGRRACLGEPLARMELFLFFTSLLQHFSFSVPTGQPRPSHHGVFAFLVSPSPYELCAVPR
Chain of human CYP2C9 (P11712 whole entry): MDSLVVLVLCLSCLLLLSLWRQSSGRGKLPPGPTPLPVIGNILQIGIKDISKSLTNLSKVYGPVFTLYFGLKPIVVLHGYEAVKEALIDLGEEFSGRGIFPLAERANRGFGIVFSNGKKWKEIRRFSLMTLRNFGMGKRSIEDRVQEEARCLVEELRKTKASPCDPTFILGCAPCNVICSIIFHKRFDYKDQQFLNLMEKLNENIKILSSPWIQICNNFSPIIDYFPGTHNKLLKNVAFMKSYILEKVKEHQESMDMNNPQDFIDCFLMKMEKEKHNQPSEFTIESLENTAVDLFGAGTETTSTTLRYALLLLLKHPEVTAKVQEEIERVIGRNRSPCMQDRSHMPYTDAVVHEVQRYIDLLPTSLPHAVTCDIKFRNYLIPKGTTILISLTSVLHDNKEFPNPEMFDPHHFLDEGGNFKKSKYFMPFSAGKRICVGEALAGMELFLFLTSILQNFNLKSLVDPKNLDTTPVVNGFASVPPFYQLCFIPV

Question: With CC(C)(C)NC(=O)[C@@H]1CN(Cc2cccnc2)CCN1C[C@@H](O)C[C@@H](Cc1ccccc1)C(=O)N[C@H]1c2ccccc2C[C@H]1O [Indinavir sulfate] as the compound, how does the “Luciferase IC50 (half-maximal inhibitory concentration)” value [1] read?
Answer: Inactive

Question: For Clc1ccc(C(Cn2ccnc2)OCc2c(Cl)cccc2Cl)c(Cl)c1 (stereo not drawn) [Isoconazole nitrate], which “Luciferase IC50 (half-maximal inhibitory concentration)” value [1] is on record?
Answer: Inactive

Question: CNCCCC12CCC(c3ccccc31)c1ccccc12 [Maprotiline hydrochloride] was tested. Which “Luciferase IC50” value [1] did it give?
Answer: Inactive

Question: With CCN(CCCCOC(=O)c1ccc(OC)c(OC)c1)C(C)Cc1ccc(OC)cc1 (stereo not drawn) [Mebeverine hydrochloride] as the compound, how does the “Luciferase IC50 (half-maximal inhibitory concentration)” value [1] read?
Answer: Inactive

Question: Which “Luciferase IC50 (half-maximal inhibitory concentration)” value [1] does the source give for CCCNC(C)(C)COC(=O)c1ccccc1 [Meprylcaine hydrochloride] here?
Answer: Inactive

Question: With CN1C[C@H](CNC(=O)OCc2ccccc2)C[C@@H]2c3cccc4c3c(cn4C)C[C@H]21 [Metergoline] as the compound, how does the “Luciferase IC50” value [1] read?
Answer: Inactive

Question: Which “Luciferase IC50” value [1] does the source give for CC[C@@H](CO)NC(=O)[C@@H]1C=C2c3cccc4[nH]cc(c34)C[C@H]2N(C)C1 [Methergine] here?
Answer: Inactive

Question: With CN(C)c1ccc2nc3ccc(=[N+](C)C)cc-3sc2c1 [Methylene blue] as the compound, how does the IC50 [1] read?
Answer: 29.1 µM

Question: With COC(=O)c1ccc(O)cc1 [Methylparaben] as the compound, how does the AC50 (human CYP1A2; [4]) read?
Answer: 20.8 µM

Question: And the “CYP2D6 AC50 (half-maximal activity concentration)” value (shortened to “CYP2D6 AC50”) (human CYP2D6)?
Answer: Inactive

Question: What about the “CYP2C19 AC50 (half-maximal activity concentration)” value (shortened to “CYP2C19 AC50”) (human CYP2C19 [2]) of the same compound?
Answer: Inactive

Question: What about the AC50 (human CYP2C9; [5]) of the same compound?
Answer: 17.4 µM

Question: What about the “CYP3A4 AC50 (half-maximal activity concentration)” value (from here on “CYP3A4 AC50”) (CYP3A4) of the same compound?
Answer: Inactive

Question: How did the “Luciferase IC50” value [1] turn out when CC#C[C@]1(O)CC[C@H]2[C@@H]3CCC4=CC(=O)CCC4=C3[C@@H](c3ccc(N(C)C)cc3)C[C@@]21C [Mifepristone] was run?
Answer: Inactive

Question: Which AC50 (human CYP1A2; [4]) does the source give for NC(=O)Cc1cccc(C(=O)c2ccccc2)c1N [Nepafenac] here?
Answer: 14.4 µM

Question: And the “CYP2D6 AC50” value (human CYP2D6)?
Answer: Inactive

Question: And the AC50 (human CYP2C19 [3]; CYP2C19 AC50 (half-maximal activity concentration))?
Answer: 29.9 µM

Question: And the AC50 (human CYP2C9; [5])?
Answer: 25.3 µM

Question: And the “CYP3A4 AC50” value (CYP3A4)?
Answer: Inactive

Question: With COCCOC(=O)C1=C(C)NC(C)=C(C(=O)OC(C)C)C1c1cccc([N+](=O)[O-])c1 (stereo not drawn) [Nimodipine] as the compound, how does the “Luciferase IC50 (half-maximal inhibitory concentration)” value [1] read?
Answer: Inactive

Question: COC(=O)Nc1nc2ccc(C(=O)c3cccs3)cc2[nH]1 [Nocodazole] was tested. Which AC50 (human CYP1A2; [4]) did it give?
Answer: 15.2 µM

Question: And the “CYP2D6 AC50” value (human CYP2D6)?
Answer: Inconclusive inhibitor

Question: What about the “CYP2C19 AC50” value (human CYP2C19 [2]) of the same compound?
Answer: Inconclusive inhibitor

Question: What about the AC50 (human CYP2C9; [5]) of the same compound?
Answer: 4.43 µM

Question: What about the “CYP3A4 AC50” value (CYP3A4) of the same compound?
Answer: Inactive

Question: With COc1cc(NC(C)CCCN)c2ncccc2c1 (stereo not drawn) [Primaquine diphosphate] as the compound, how does the “Luciferase IC50 (half-maximal inhibitory concentration)” value [1] read?
Answer: Inactive

Question: How did the “Luciferase IC50 (half-maximal inhibitory concentration)” value [1] turn out when CCCNCC(O)COc1ccccc1C(=O)CCc1ccccc1 (stereo not drawn) [Propafenone hydrochloride] was run?
Answer: Inactive

Question: With O=C(c1ccc(OCCN2CCCCC2)cc1)c1c(-c2ccc(O)cc2)sc2cc(O)ccc12 [Raloxifene hydrochloride] as the compound, how does the “Luciferase IC50 (half-maximal inhibitory concentration)” value [1] read?
Answer: Inactive

Question: How did the AC50 (human CYP1A2) turn out when CCNc1nc(NC(C)CC)nc(OC)n1 (stereo not drawn) [Secbumeton] was run?
Answer: 26.2 µM

Question: What about the “CYP2D6 AC50” value (human CYP2D6) of the same compound?
Answer: Inactive

Question: And the AC50 (human CYP2C19 [3])?
Answer: 26.4 µM

Question: And the AC50 (human CYP2C9)?
Answer: 43.5 µM

Question: What about the “CYP3A4 AC50” value (CYP3A4) of the same compound?
Answer: Inactive

Question: For CCNc1nc(Cl)nc(NCC)n1 [Simazine], which AC50 (human CYP1A2; [4]) is on record?
Answer: 7.9 µM

Question: And the “CYP2D6 AC50” value (human CYP2D6)?
Answer: Inconclusive inhibitor

Question: What about the “CYP2C19 AC50” value (human CYP2C19 [2]) of the same compound?
Answer: Inactive

Question: And the AC50 (human CYP2C9; [5])?
Answer: 5.09 µM

Question: What about the “CYP3A4 AC50” value (CYP3A4) of the same compound?
Answer: Inactive

Question: CSc1ccc2c(c1)N(CCC1CCCCN1C)c1ccccc1S2 (stereo not drawn) [Thioridazine hydrochloride] was tested. Which “Luciferase IC50 (half-maximal inhibitory concentration)” value [1] did it give?
Answer: Inactive

Question: For Clc1ccccc1CN1CCc2sccc2C1 [Ticlopidine hydrochloride], which IC50 [1] is on record?
Answer: 8.71 µM

Question: Which “Luciferase IC50 (half-maximal inhibitory concentration)” value [1] does the source give for CC(CN(C)C)CN1c2ccccc2Sc2ccccc21.CC(CN(C)C)CN1c2ccccc2Sc2ccccc21.O=C(O)C(O)C(O)C(=O)O (stereo not drawn) [Trimeprazine tartrate] here?
Answer: Inactive

Question: With CCOc1ccccc1OCC1CNCCO1 (stereo not drawn) [Viloxazine hydrochloride] as the compound, how does the “Luciferase IC50 (half-maximal inhibitory concentration)” value [1] read?
Answer: Inactive
